Values of other authors, collected in patent US20090036693A1, “METHOD OF PURIFYING UBIQUINONE-10” (Kyowa Hakko Kogyo Co., Ltd., priority 2005, published 2009).

Conditions: solvent methanol; background statement

COC1=C(OC)C(=O)C(C/C=C(\C)CC/C=C(\C)CC/C=C(\C)CC/C=C(\C)CC/C=C(\C)CC/C=C(\C)CC/C=C(\C)CC/C=C(\C)CC/C=C(\C)CCC=C(C)C)=C(C)C1=O [ubiquinone-10]
solubility in methanol: ≤ 5000 µg/mL
